Results from patent US6638968B1, “Use of prodigiosin for treating diabetes mellitus” (Korea Research Institute of Bioscience and Biotechnology, priority 2000, dated 2003).

Key:
Assay type in all cases: in vivo, mouse
[1] = system: NOD mice; assay: Blood glucose of NOD mice (plasma, blood biochemical analyzer); conditions: prodigiosin-injected NOD mice, 10 mg/kg intraperitoneally
Procedure: FIG. 3 illustrates decrease of the blood glucose by administration of prodigiosin. After we isolated plasma from NOD mouse, the blood glucose was measured with the blood biochemical analyzer (Cibacorning, USA).
Prodigiosin was intraperitoneally injected in 10 mg/kg from 8 weeks to 24 weeks of age, and the urine glucose was measured with uropaper (Eiken Chemical Co. Ltd., Japan) every week. In control group of NOD mice, not receiving prodigiosin, the urine glucose was first detected from 15 weeks of age, and at 24 weeks, 80% of the mice had the urine glucose detected (FIG. 2). […] Average blood glucose of non-prodigiosin-injected NOD mice was 500 mg/dl, which means diabetes mellitus crisis, and that of prodigiosin-injected NOD mice was 100 mg/dl, which means the normal condition (FIG. 3).

[2] = system: NOD mice; assay: Insulitis: lymphocyte infiltration into pancreatic ducts, hematoxylin/eosin staining; conditions: prodigiosin-injected NOD mice
Procedure: In insulin-dependent diabetes mellitus, insulitis may be induced by lymphocyte infiltration into pancreatic ducts and destruction of beta cells thereby. Macrophages and T cells are the major infiltrating lymphocytes, and these immune cells destroy beta cells. The pancreas from both the prodigiosin-injected and the non-injected NOD mice were preserved in formalin and to preparation. After the hematoxylin/eosin staining, the lymphocyte infiltration level was measured. 1, 2, and 3 point were respectively given to 25, 50, and 75% of insulitis progression, and the average value of insulitis progression was calculated (FIG. 4). The NOD mice, not receiving prodigiosin, had more than 2 point, or over 50% of infiltration, while the infiltration level of the prodigiosin-injected mice was about 1 point, or under 20% of infiltration.

[3] = system: NOD mice; assay: Side effects of prodigiosin in NOD mice (body weight, mortality, pathological test of liver, kidney, lung)
Procedure: Because of diabetes, NOD mice have their weight decrease and come to die in 2 weeks after symptoms of diabetes.
FIG. 7 illustrates that the prodigiosin has no side effect.
In NOD mice receiving prodigiosin from 8 weeks to 24 weeks age, the negative effects of the prodigiosin were examined (FIG. 7). […] After their liver, kidney, and lung had been extracted from the prodigiosin-injected NOD mice, a pathological test was performed using the hematoxylinleosin staining.

**Q.** How did the average blood glucose [1] turn out when `CCCCCC1=C/C(=C/c2[nH]c(-c3ccc[nH]3)cc2OC)N=C1C` [prodigiosin] was run?
**A.** 100 mg/dL

**Q.** And the lymphocyte infiltration ([2]; pancreas, hematoxylin/eosin staining)?
**A.** under 20%

**Q.** What about the “infiltration level (average insulitis progression score)” value ([2]; 1, 2, 3 point = 25, 50, 75% insulitis progression) of the same compound?
**A.** about 1 point

**Q.** What about the mortality ([3]; NOD mice receiving prodigiosin) of the same compound?
**A.** any mice were not found dead

**Q.** And the “toxicity to kidney, liver and lung” value ([3]; NOD mice receiving prodigiosin)?
**A.** no toxicity to kidney, liver and lung

**Q.** And the body weight ([3]; NOD mice receiving prodigiosin from 8 to 24 weeks of age)?
**A.** didn't decrease

**Q.** And the “toxicity to kidney (glomerulus and nephric tubule, pathological test)” value ([3]; NOD mice receiving prodigiosin from 8 to 24 weeks of age, hematoxylin/eosin staining)?
**A.** no toxicity to kidney
